Our source for the remaining binding values is article PMC7486443, “Generation of Phenothiazine with Potent Anti-TLK1 Activity for Prostate Cancer Therapy” (iScience, 2020).

Some targets named below: CDKL2 (Homo sapiens, UniProt Q92772); PIK3CA(E545A) (Homo sapiens, UniProt P42336, E545A); CAMK4 (Homo sapiens, UniProt Q16566); PIK3CA(I800L) (Homo sapiens, UniProt P42336, I800L); EPHA3 (Homo sapiens, UniProt P29320); HIPK2 (Homo sapiens, UniProt Q9H2X6); SBK1 (Homo sapiens, UniProt Q52WX2); HIPK1 (Homo sapiens, UniProt Q86Z02); NEK11 (Homo sapiens, UniProt Q8NG66); CIT (Homo sapiens, UniProt O14578); AXL (Homo sapiens, UniProt P30530); FLT3(D835Y) (Homo sapiens, UniProt P36888, D835Y); BRAF (Homo sapiens, UniProt P15056); TGFBR2 (Homo sapiens, UniProt P37173).

Assay in all cases: biochemical
Holding throughout (parameters): DiscoverX KINOMEscan scanMAX competition binding panel, single concentration, percent of control; remaining binding: dose or concentration left out as unconfirmed
Conditions in all cases: KINOMEscan binding, percent of control; read-out: Table S4_SCANMAX REPORT - related to Fig. 1 / Percent Control

A further experiment has as its target T1, FAK (Homo sapiens, UniProt Q05397).
T1 construct: gene PTK2

The target of experiment [1] is T2, ABL1(E255K)-phosphorylated (Homo sapiens, UniProt P00519, E255K).
T2 construct: phosphorylated

Another experiment has as its target T3, RIPK5 (Homo sapiens, UniProt Q6XUX3).
T3 construct: gene DSTYK

Experiment [2] concerns the target T4, RSK3(Kin.Dom.1-N-terminal) (Homo sapiens, UniProt Q15349).
T4 construct: gene RPS6KA2; Kin.Dom.1-N-terminal

T3 sequence (Q6XUX3 whole entry): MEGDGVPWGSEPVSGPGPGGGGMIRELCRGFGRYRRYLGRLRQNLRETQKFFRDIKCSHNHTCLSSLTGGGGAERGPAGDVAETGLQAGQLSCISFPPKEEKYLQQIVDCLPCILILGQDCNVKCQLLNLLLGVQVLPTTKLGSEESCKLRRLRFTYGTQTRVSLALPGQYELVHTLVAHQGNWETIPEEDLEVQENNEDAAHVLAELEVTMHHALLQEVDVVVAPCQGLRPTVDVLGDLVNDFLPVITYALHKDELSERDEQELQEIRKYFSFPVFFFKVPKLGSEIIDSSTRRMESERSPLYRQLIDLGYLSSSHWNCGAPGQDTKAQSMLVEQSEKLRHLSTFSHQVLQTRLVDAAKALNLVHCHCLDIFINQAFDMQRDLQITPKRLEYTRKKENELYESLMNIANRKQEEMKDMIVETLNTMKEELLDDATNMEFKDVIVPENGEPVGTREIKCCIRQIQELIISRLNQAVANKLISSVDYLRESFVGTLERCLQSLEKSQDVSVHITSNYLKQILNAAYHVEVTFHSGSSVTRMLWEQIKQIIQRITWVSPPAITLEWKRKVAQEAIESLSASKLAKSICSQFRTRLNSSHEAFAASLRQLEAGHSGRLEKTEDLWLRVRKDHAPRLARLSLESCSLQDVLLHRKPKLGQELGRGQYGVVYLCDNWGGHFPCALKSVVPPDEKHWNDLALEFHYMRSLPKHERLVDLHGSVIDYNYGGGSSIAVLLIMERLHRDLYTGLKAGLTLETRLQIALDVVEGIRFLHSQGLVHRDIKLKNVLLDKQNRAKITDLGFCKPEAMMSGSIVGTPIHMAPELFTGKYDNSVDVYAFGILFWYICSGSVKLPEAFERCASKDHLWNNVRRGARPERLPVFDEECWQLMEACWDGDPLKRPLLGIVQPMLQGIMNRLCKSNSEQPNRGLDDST
Chain of SBK1 (Q52WX2 whole entry): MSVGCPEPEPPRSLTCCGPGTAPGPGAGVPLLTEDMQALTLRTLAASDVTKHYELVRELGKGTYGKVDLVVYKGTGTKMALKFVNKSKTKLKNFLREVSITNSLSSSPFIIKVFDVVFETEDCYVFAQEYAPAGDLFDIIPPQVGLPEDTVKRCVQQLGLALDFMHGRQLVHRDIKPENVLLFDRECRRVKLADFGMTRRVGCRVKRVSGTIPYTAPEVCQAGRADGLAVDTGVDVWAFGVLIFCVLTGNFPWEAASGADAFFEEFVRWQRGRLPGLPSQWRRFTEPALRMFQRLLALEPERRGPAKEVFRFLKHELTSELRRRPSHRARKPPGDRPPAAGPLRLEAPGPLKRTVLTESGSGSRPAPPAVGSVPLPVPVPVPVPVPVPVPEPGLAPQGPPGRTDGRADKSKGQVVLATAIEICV
Chain of CIT (O14578 whole entry): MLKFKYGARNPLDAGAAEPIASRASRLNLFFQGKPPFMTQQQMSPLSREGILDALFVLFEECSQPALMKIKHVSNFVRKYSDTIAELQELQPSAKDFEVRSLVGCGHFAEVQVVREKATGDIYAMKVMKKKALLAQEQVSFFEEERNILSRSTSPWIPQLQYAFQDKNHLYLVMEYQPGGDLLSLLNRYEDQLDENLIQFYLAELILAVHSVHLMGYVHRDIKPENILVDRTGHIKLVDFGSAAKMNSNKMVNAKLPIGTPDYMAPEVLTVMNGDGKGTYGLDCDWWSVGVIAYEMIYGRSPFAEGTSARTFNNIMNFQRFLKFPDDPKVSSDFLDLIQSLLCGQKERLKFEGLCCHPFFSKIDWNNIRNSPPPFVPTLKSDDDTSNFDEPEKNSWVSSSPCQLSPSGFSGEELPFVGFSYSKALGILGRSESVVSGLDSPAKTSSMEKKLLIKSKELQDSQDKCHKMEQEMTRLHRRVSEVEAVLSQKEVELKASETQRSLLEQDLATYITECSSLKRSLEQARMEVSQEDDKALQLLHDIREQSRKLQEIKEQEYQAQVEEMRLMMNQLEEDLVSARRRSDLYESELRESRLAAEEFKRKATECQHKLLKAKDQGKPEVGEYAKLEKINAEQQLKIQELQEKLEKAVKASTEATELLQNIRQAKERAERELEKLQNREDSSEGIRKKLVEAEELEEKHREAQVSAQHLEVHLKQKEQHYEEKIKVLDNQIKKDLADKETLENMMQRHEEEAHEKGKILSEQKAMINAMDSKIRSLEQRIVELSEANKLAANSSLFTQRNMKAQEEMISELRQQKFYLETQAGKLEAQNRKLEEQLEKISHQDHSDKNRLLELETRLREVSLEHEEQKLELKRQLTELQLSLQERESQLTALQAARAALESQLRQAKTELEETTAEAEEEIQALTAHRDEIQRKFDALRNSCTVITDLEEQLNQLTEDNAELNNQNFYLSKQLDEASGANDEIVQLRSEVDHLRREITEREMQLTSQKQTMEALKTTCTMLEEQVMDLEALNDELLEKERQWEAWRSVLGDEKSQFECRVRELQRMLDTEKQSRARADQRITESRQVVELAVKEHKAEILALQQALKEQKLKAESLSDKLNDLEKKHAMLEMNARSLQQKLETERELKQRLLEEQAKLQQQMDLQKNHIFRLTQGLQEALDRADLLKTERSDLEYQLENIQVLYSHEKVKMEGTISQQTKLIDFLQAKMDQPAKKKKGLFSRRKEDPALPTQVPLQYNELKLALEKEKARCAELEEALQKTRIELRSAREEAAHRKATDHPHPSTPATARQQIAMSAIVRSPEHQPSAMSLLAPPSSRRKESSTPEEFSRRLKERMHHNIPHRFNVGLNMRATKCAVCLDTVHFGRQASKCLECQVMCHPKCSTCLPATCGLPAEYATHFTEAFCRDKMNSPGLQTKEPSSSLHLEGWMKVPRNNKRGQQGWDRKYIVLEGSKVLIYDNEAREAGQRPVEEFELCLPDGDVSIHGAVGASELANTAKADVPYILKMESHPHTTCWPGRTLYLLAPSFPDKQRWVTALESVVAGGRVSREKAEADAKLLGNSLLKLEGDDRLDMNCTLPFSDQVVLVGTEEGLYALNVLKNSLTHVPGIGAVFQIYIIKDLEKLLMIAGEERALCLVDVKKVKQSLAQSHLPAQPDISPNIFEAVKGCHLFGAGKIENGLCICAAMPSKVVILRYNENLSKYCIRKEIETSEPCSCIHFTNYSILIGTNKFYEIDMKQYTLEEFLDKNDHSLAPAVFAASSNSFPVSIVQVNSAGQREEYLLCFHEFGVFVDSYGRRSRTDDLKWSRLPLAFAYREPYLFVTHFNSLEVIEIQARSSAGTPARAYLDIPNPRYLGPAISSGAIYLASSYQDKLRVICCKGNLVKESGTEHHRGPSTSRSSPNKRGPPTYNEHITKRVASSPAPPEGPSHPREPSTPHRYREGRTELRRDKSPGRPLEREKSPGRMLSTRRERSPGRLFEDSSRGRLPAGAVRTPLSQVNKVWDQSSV
T4 sequence (Q15349 whole entry): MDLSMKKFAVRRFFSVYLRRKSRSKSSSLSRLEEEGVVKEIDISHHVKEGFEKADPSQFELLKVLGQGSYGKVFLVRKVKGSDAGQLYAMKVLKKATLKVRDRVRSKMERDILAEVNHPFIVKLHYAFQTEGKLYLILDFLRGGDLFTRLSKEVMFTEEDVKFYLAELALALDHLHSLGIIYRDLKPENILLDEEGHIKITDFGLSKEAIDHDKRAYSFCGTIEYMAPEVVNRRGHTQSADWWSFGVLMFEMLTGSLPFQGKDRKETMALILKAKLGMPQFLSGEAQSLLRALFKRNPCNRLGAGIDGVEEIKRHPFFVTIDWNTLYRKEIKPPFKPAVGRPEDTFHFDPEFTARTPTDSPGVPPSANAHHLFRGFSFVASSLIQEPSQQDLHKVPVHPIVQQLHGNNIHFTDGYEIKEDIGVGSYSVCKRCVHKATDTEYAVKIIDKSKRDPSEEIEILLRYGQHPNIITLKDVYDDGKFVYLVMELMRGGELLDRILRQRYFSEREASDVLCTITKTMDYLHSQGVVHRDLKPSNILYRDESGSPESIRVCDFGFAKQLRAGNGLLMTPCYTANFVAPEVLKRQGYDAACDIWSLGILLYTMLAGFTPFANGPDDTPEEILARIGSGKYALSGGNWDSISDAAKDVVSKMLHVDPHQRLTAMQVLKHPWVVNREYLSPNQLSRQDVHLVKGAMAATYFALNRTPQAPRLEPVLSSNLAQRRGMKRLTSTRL
Chain of NEK11 (Q8NG66 whole entry): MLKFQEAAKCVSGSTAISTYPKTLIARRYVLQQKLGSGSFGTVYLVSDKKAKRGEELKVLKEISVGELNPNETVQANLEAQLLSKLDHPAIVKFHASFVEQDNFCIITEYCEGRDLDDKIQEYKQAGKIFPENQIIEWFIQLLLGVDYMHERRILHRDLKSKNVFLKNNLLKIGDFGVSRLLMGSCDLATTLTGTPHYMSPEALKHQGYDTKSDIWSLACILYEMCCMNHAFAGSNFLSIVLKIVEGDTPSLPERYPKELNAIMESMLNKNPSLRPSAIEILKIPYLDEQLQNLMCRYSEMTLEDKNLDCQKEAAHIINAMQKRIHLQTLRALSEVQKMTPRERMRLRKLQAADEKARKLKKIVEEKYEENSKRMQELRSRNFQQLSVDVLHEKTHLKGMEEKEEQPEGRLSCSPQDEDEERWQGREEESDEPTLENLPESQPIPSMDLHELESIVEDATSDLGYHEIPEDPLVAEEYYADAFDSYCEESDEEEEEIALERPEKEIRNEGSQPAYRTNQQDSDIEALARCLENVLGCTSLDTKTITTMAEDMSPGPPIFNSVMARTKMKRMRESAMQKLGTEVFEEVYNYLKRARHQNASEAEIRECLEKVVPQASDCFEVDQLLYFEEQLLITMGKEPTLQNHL

For the compound `c1ccc2c(c1)Sc1ccccc1N2CCN1CCOCC1` [J54], the remaining binding is 100% at CDKL2; 92% at FAK; 97% at PIK3CA(E545A); 94% on CAMK4; 99% at PIK3CA(I800L); 99% on EPHA3. In addition, the remaining binding on HIPK2 was found to be 100%; at SBK1, 93%; in experiment [1], 86%; on HIPK1, 85%; on NEK11, 100%; at RIPK5, 100%. Further, the remaining binding came out at 100% in [2]; 88% at CIT; 99% at AXL; 79% at FLT3(D835Y); 100% at BRAF; 99% at TGFBR2.
